One block for each molecule: values may come before it. Where a SMILES comes first, the peptide text is derived from it.
Key:
[1] = target: T1, V2 receptor (AVP-R2) overexpressed in CHO-K1 cells (Homo sapiens, UniProt P30518); experiment: Intracellular cAMP release in AVP-R2 CHO-K1 cells (cAMP Hunter eXpress); assay type: cell-based; conditions: peptide alone, 30 min at 37°C, chemiluminescent read-out
T1 construct: host or cells: CHO-K1
Description: Changes in intracellular cAMP level in response to agonist stimulation of the GPCR receptor was detected with a chemiluminescent cAMP Hunter eXpress Cat.No: # 95-0150E2CP2M kit from DiscoveRx (www.discoverx.com). A standard curve of cAMP (in duplicate) was included in the same plate and used to report data in nM cAMP. […] The values of cAMP were presented as relative light units (RLU) or they were calculated in nM from the standard curve.

Wistar rats = experiment: Urine, sodium and potassium outflow after iv injection in rats (metabolic cages, 5 h); assay type: in vivo; conditions: Wistar rat
Description: Experiments were performed using 8-week-old Wistar rats (225-250g) purchased from Charles River laboratories (St. Constant, QC, CA). Rats were housed in a standard temperature and light condition with access to water and irradiated standard rodent diet (Harlan Laboratories Inc., IN, USA) ad libitum. At the end of experiments, rats were anaesthetized with sodium pentobarbital (5mg/100 g body wt. i.p.; 20 𝜇mol/100 g body wt.) and blood samples (2mL, EDTA) were collected. Rats were euthanized by cervical decapitation.
Peptides were dissolved at the desired concentration in 0.3 mL of the vehicle and administered as a single bolus in the tail vein.
Both antagonists (OTA, V2A) were administered to rats at the concentration of 10 μmol/kg under normal conditions (0.3 mL iv injection) and with blood volume expansion (5 mL iv injection). Rats (n = 24 per condition) received combination treatment in random order separated by a 2–3 day interval. For both series of experiments, rats were placed in metabolic cages for a period of 5 hours to collect urine for the determination of sodium and potassium levels. Metabolic cages were kept in a bright and quiet room and rats were deprived of food and water during this period.
The concentrations of excreted sodium and potassium were determined by flame spectrometry (iCE 3000 series AA spectrometer; Thermo Fisher Scientific, Cambridge, UK).

T1 sequence (P30518 whole entry): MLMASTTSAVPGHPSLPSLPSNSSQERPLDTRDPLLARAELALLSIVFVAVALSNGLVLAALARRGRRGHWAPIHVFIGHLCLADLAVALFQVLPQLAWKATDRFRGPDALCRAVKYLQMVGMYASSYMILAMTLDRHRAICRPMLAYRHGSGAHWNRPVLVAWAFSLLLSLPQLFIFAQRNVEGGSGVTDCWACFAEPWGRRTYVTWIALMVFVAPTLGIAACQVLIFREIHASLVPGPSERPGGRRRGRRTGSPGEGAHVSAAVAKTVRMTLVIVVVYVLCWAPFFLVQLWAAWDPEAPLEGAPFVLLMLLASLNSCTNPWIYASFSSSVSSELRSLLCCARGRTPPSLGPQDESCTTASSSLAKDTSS

EC50 [1]: 1100 nM
Molecule: CC[C@H](C)[C@@H]1NC(=O)[C@H](Cc2ccc(O)cc2)NC(=O)[C@@H](N)CSSC[C@@H](C(=O)N2CCC[C@H]2C(=O)N[C@@H](CC(C)C)C(=O)NCC(=O)NCC(=O)N[C@@H](CCCCN)C(=O)N[C@@H](CCCNC(=N)N)C(=O)O)NC(=O)[C@H](CC(N)=O)NC(=O)[C@H](CCC(N)=O)NC1=O [OT-GKR] (HELM PEPTIDE1{C.Y.I.Q.N.C.P.L.G.G.K.R}$PEPTIDE1,PEPTIDE1,1:R3-6:R3$$$V2.0)

Molecule: [d(CH2)5, Tyr(Me)2, Thr4, Orn8, Tyr-NH29]-vasotocin [OTA]
effect of antagonist on OT-stimulated diuresis (Wistar rats; OTA co-administered with OT, normal volume and blood volume expansion (5 mL)): inhibited OT-stimulated diuresis to control and BVE levels

Molecule: [d(CH2)5, D-Ile2, Ile4, Tyr-NH29]-AVP [V2A]
effect of antagonist alone on diuresis (Wistar rats; V2A alone iv, normal volume and blood volume expansion): significant diuresis

Source: paper PMC6608960 (PLoS ONE, 2019)
